According to patent EP0225522A1, “Imidazopyridazine alkene carboxamides, process for their preparation, intermediate products and their preparation” (BAYER AG, priority 1985, dated 1987):

System: männliche Ratten
Assay: Diuretic and saluretic effect in fasted male rats: urine and electrolyte excretion over 6 hours in metabolism cages
Type: in vivo, Ratten (SPF
Settings: 100 mg/kg p.o. in 10 ml/kg Tylose-Suspension, excretion over 6 Stunden, fasted male Wistar rats; for K^+ / Na^+: flame photometer
Procedure: Die pharmakologische Wirkung der erfindungsgemäßen Verbindungen wurden nach folgender Testmethode ermittelt: Nüchterne männliche Ratten im Gewicht von 150 bis 250 g (SPF, Wistar, je n=4 Paare) werden mit 10 ml/kg p.o. Tylose-Suspension (0,5 X) als Kontrollen bzw. mit 100 mg/kg p.o. Prüfsubstanz in 10 ml/kg p.o. Tylose-Suspension mittels Schlundsonde behandelt. Die Tiere werden in Stoffwechselkäfige gebracht und die Harn- und Elektrolytauscheidung über 6 Stunden bestimmt (Na^4 und K^4 Bestimmung: IL-Flammenphotometer).

SMILES | Harn [mL/kg] | K^+ [µmol/kg] | Na^+ [µmol/kg]
Cc1ccc2nc(-c3ccccc3)c(/C=C/C(=O)N3CCCCC3)n2n1 [Beispiel 14] | 25 | 900 | 2900
CN1CCN(c2ccc3nc(-c4ccccc4)c(/C=C/C(=O)N4CCCCC4)n3n2)CC1 [Beispiel 33] | 26 | 450 | 3400
CCN(CC)C(=O)/C=C/c1c(-c2ccccc2)nc2ccc(N3CCN(C)CC3)nn12 [Beispiel 35] | 21 | 800 | 3100
